In brackets after ≈: the same amount, converted by molar mass. Several values for one entry are separate records, joined by “and”; a condition that tells them apart may be missing. Identical values can stand only once.
What was measured:
Assay type in all cases: cell-based
[1] = test system: Staphylococcus aureus A5177; assay: In vitro agar dilution MIC, organism code BB; details: in µg/mL (unit assumed)
Description: (§1) Representative compounds of the present invention were assayed in vitro for antibacterial activity as follows: Twelve petri dishes containing successive aqueous dilutions of the test compound mixed with 10 mL of sterilized Brain Heart Infusion (BHI) agar (Difco 0418-01-5) were prepared. Each plate was inoculated with 1:100 (or 1:10 for slow-growing strains, such as Micrococcus and Streptococcus) dilutions of up to 32 different microorganisms, using a Steers replicator block. The inoculated plates were incubated at 35-37° C. for 20 to 24 hours. In addition, a control plate, using BHI agar containing no test compound, was prepared and incubated at the beginning and end of each test.
(§2) An additional plate containing a compound having known susceptibility patterns for the organisms being tested and belonging to the same antibiotic class as the test compound was also prepared and incubated as a further control, as well as to provide test-to-test comparability.
(§3) After incubation, each plate was visually inspected. The minimum inhibitory concentration (MIC) was defined as the lowest concentration of drug yielding no growth, a slight haze, or sparsely isolated colonies on the inoculum spot as compared to the growth control.

[2] = test system: Staphylococcus aureus A-5278; assay: In vitro agar dilution MIC, organism code CC; details: unit assumed
Description: as §1, §2, §3

[3] = test system: Streptococcus pyogenes EES61; assay: In vitro agar dilution MIC, organism code LL; details: unit assumed
Description: as §1, §2, §3

[4] = test system: Streptococcus pneumoniae ATCC 6303; assay: In vitro agar dilution MIC, organism code XX; details: unit assumed
Description: as §1, §2, §3

[5] = test system: Streptococcus pyogenes PIU 2548; assay: In vitro agar dilution MIC, organism code NN; details: unit assumed
Description: as §1, §2, §3

[6] = test system: Streptococcus pyogenes 930; assay: In vitro agar dilution MIC, organism code MM; details: unit assumed
Description: as §1, §2, §3

[7] = test system: Streptococcus pneumoniae 5979; assay: In vitro agar dilution MIC, organism code ZZ; details: unit assumed
Description: as §1, §2, §3

[8] = test system: Streptococcus pneumoniae 5649; assay: In vitro agar dilution MIC, organism code ZZA; details: unit assumed
Description: as §1, §2, §3

[9] = test system: Staphylococcus aureus ATCC 6538P; assay: In vitro agar dilution MIC, organism code AA; details: unit assumed
Description: as §1, §2, §3

[10] = test system: Haemophilis influenzae DILL AMP R; assay: In vitro agar dilution MIC, organism code WW; details: unit assumed
Description: as §1, §2, §3

[11] = test system: Staphylococcus aureus CMX 553; assay: In vitro agar dilution MIC, organism code FF; details: Table 1B, unit assumed
Description: as §1, §2, §3

[12] = test system: Staphylococcus epidermidis 3519; assay: In vitro agar dilution MIC, organism code HH; details: Table 1B, in µg/mL (unit assumed)
Description: as §1, §2, §3

[13] = test system: Staphylococcus aureus CMX 642A; assay: In vitro agar dilution MIC, organism code DD; details: Table 1B, unit assumed
Description: as §1, §2, §3

[14] = test system: Enterococcus faecium ATCC 8043; assay: In vitro agar dilution MIC, organism code II; details: Table 1B, unit assumed
Description: as §1, §2, §3

Escherichia coli SS = assay: In vitro agar dilution MIC, organism code RR; details: Table 1B, in µg/mL (unit assumed)
Description: as §1, §2, §3

Candida albicans CCH 442 = assay: In vitro agar dilution MIC, organism code TT; details: Table 1B, unit assumed
Description: as §1, §2, §3

[15] = test system: Staphylococcus aureus 1775; assay: In vitro agar dilution MIC, organism code GG; details: Table 1B, unit assumed
Description: as §1, §2, §3

[16] = test system: Streptococcus bovis A-5169; assay: In vitro agar dilution MIC, organism code JJ; details: Table 1B, unit assumed
Description: as §1, §2, §3

[17] = test system: Streptococcus agalactiae CMX 508; assay: In vitro agar dilution MIC, organism code KK; details: Table 1B, unit assumed
Description: as §1, §2, §3

[18] = test system: Nocardia asteroides ATCC 9970; assay: In vitro agar dilution MIC, organism code VV; details: Table 1B, in µg/mL (unit assumed)
Description: as §1
as §2, with “comparability. Erythromycin A was used for this purpose.” for “comparability.”
as §3

Escherichia coli DC-2 = assay: In vitro agar dilution MIC, organism code SS; details: Table 1B, unit assumed
Description: as §1, §2, §3

[19] = test system: Staphylococcus aureus NCTC10649M; assay: In vitro agar dilution MIC, organism code EE; details: Table 1B, unit assumed
Description: as §1, §2, §3

Escherichia coli JUHL = assay: In vitro agar dilution MIC, organism code QQ; details: Table 1B, in µg/mL (unit assumed)
Description: as §1, §2, §3

[20] = test system: Streptococcus pneumoniae GYR 1171; assay: In vitro agar dilution MIC, organism code YY; details: Table 1B, unit assumed
Description: as §1, §2, §3

[21] = test system: Mycobacterium smegmatis ATCC 114; assay: In vitro agar dilution MIC, organism code UU; details: Table 1B, in µg/mL (unit assumed)
Description: as §1, §2, §3

[22] = test system: Micrococcus luteus ATCC 9341; assay: In vitro agar dilution MIC, organism code OO; details: Table 1B, unit assumed
Description: as §1, §2, §3

[23] = test system: Micrococcus luteus ATCC 4698; assay: In vitro agar dilution MIC, organism code PP; details: Table 1B, in µg/mL (unit assumed)
Description: as §1, §2, §3

MIC ([3]; Table 1D) [µg/mL] | MIC ([4]; Table 1D) [µg/mL] | MIC ([5]; Table 1D) [µg/mL] | MIC ([6]; Table 1D) [µg/mL] | MIC ([7]; Table 1D) [µg/mL] | MIC ([8]; Table 1D) [µg/mL] | MIC ([10]; Table 1D) [µg/mL] | Compound | MIC ([1]; Table 1B) | MIC [11] [µg/mL] | MIC [12] | MIC [13] [µg/mL] | MIC [14] [µg/mL] | MIC ([2]; Table 1B) [µg/mL] | MIC (Escherichia coli SS) | MIC (Candida albicans CCH 442) [µg/mL] | MIC ([3]; Table 1B) [µg/mL] | MIC [15] [µg/mL] | MIC [16] [µg/mL] | MIC ([4]; Table 1B) [µg/mL] | MIC [17] [µg/mL] | also measured
– | – | – | – | – | – | – | CC[C@H]1OC(=O)[C@H](C)C(=O)[C@H](C)[C@@H](O[C@@H]2O[C@H](C)C[C@H](N(C)C)[C@H]2O)[C@](C)(OC)C[C@@H](C)C2=NCCN3C(=O)O[C@@]1(C)[C@H]3[C@H]2C [Standard (X is H), reference compound] | – | – | – | – | – | – | – | – | – | – | – | – | – | MIC ([1]; Table 1C): 0.2; MIC ([2]; Table 1C): > 100 µg/mL; MIC ([3]; Table 1C): 0.02 µg/mL (≈ 0.0314 µM); MIC ([4]; Table 1C): 0.06 µg/mL (≈ 0.0941 µM); MIC ([5]; Table 1C): 0.39 µg/mL (≈ 0.611 µM); MIC ([6]; Table 1C): > 100 µg/mL; MIC ([7]; Table 1C): > 128 µg/mL; MIC ([8]; Table 1C): 0.5 µg/mL (≈ 0.784 µM); MIC ([9]; Table 1C): 0.2 µg/mL (≈ 0.314 µM); MIC ([10]; Table 1C): 4 µg/mL (≈ 6.27 µM)
0.03 (≈ 0.0392 µM) | 0.03 (≈ 0.0392 µM) | 0.25 (≈ 0.326 µM) | 1 (≈ 1.31 µM) | 16 (≈ 20.9 µM) | 0.25 (≈ 0.326 µM) | 2 (≈ 2.61 µM) | CC[C@H]1OC(=O)[C@H](C)C(=O)[C@H](C)[C@@H](O[C@@H]2O[C@H](C)C[C@H](N(C)C)[C@H]2O)[C@](C)(OC/C=C/c2cnc3ccccc3c2)C[C@@H](C)C(=O)[C@H](C)[C@H]2NC(=O)O[C@@]21C [Standard A, reference compound] | – | – | – | – | – | – | – | – | – | – | – | – | – | –
0.03 (≈ 0.0391 µM) | 0.015 (≈ 0.0196 µM) | 0.25 (≈ 0.326 µM) | 1 (≈ 1.3 µM) | 64 (≈ 83.4 µM) | 0.5 (≈ 0.652 µM) | 2 (≈ 2.61 µM) | CC[C@H]1OC(=O)[C@H](C)C(=O)[C@H](C)[C@@H](O[C@@H]2O[C@H](C)C[C@H](N(C)C)[C@H]2O)[C@](C)(OC/C=C/c2ccc3nccnc3c2)C[C@@H](C)C(=O)[C@H](C)[C@H]2NC(=O)O[C@@]21C [Standard C, reference compound] | – | – | – | – | – | – | – | – | – | – | – | – | – | –
– | – | – | – | – | – | – | CC[C@H]1OC(=O)[C@H](C)[C@@H](O[C@H]2C[C@@](C)(OC)[C@@H](O)[C@H](C)O2)[C@H](C)[C@@H](O[C@@H]2O[C@H](C)C[C@H](N(C)C)[C@H]2O)[C@](C)(O)C[C@@H](C)C(=O)[C@H](C)[C@@H](O)[C@]1(C)O [Ery. A, Erythromycin A, reference compound] | 3.1 and 6.2 | 0.39 (≈ 0.531 µM) | 0.39 and 0.2 | 0.39 (≈ 0.531 µM) | 0.05 (≈ 0.0681 µM) | > 100 | 0.78 and 0.39 | > 100 | 0.02 (≈ 0.0273 µM) | > 100 | 0.02 (≈ 0.0273 µM) | 0.06 (≈ 0.0818 µM) | 0.05 (≈ 0.0681 µM) | MIC [18]: 0.1 and 0.05; MIC ([6]; Table 1B): > 100 µg/mL; MIC (Escherichia coli DC-2): > 100 µg/mL; MIC [19]: 0.39 µg/mL (≈ 0.531 µM); MIC (Escherichia coli JUHL): > 100 and 50; MIC [20]: 0.06 µg/mL (≈ 0.0818 µM); MIC ([8]; Table 1B): 16 µg/mL (≈ 21.8 µM); MIC ([9]; Table 1B): 0.2 µg/mL (≈ 0.273 µM); MIC [21]: 3.1 and 6.2; MIC [22]: 0.02 µg/mL (≈ 0.0273 µM); MIC [23]: 0.2 and 0.39; MIC ([10]; Table 1B): 4 µg/mL (≈ 5.45 µM)
– | – | – | – | – | – | – | CC[C@H]1OC(=O)[C@@](C)(F)C(=O)[C@H](C)[C@@H](O[C@@H]2O[C@H](C)C[C@H](N(C)C)[C@H]2O)[C@](C)(OC/C=C/c2cnc3ccc(CS(N)(=O)=O)cc3c2)C[C@@H](C)C(=O)[C@H](C)[C@H]2NC(=O)O[C@@]21C [Example 14] | 0.1 | 0.1 (≈ 0.114 µM) | 0.1 | 0.1 (≈ 0.114 µM) | 0.1 (≈ 0.114 µM) | > 100 | 0.1 | > 100 | 0.01 (≈ 0.0114 µM) | > 100 | ≤ 0.005 | ≤ 0.004 | 0.01 (≈ 0.0114 µM) | MIC [18]: 0.1; MIC ([5]; Table 1B): 0.2 µg/mL (≈ 0.228 µM); MIC (Escherichia coli DC-2): 100 µg/mL (≈ 114 µM); MIC ([7]; Table 1B): 2 µg/mL (≈ 2.28 µM); MIC [19]: 0.1 µg/mL (≈ 0.114 µM); MIC (Escherichia coli JUHL): 50; MIC [20]: ≤ 0.004 µg/mL; MIC ([8]; Table 1B): 0.25 µg/mL (≈ 0.285 µM); MIC ([9]; Table 1B): 0.05 µg/mL (≈ 0.057 µM); MIC [21]: 3.1; MIC [22]: 0.01 µg/mL (≈ 0.0114 µM); MIC [23]: 0.2; MIC ([10]; Table 1B): 2 µg/mL (≈ 2.28 µM)
